Assay results reported in article PMC3914206.

Assays:
Type in all cases: binding
Conditions in all cases: Compound Concentration 10 µM
[1] = molecular target: T1, panel of 442 kinases (Homo sapiens, UniProt Q12851)
T1 construct: purchased KINOMEscan
T1 sequence (Q12851 1-820): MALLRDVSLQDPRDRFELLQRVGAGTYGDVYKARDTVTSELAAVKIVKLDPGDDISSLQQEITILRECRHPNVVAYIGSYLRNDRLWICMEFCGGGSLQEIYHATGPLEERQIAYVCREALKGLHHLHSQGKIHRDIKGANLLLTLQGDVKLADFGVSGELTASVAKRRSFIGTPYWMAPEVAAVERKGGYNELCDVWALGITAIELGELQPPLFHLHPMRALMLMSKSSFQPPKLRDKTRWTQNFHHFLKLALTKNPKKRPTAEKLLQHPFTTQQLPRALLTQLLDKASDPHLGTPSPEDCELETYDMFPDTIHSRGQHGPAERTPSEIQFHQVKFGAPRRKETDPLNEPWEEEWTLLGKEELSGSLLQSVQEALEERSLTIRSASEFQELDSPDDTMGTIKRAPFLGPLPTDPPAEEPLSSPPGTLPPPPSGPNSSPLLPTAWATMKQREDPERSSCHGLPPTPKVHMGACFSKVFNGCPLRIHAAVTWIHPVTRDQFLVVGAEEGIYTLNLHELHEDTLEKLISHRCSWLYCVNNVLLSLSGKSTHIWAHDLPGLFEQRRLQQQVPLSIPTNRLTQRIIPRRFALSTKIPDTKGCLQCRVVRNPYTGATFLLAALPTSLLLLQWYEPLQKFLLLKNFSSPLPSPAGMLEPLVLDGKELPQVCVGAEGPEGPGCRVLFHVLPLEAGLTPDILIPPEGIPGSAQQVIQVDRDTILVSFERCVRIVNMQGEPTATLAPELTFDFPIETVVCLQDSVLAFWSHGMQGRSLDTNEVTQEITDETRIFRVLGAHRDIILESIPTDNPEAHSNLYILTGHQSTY
Text: (§1) We assessed the selectivity of members of this scaffold using the KINOMEscan methodology across a near comprehensive panel of 442 kinases [[18,27]].

[2] = molecular target: T2, panel of 442 kinases (Homo sapiens, UniProt Q15303)
T2 construct: purchased KINOMEscan
T2 sequence (Q15303 26-1308): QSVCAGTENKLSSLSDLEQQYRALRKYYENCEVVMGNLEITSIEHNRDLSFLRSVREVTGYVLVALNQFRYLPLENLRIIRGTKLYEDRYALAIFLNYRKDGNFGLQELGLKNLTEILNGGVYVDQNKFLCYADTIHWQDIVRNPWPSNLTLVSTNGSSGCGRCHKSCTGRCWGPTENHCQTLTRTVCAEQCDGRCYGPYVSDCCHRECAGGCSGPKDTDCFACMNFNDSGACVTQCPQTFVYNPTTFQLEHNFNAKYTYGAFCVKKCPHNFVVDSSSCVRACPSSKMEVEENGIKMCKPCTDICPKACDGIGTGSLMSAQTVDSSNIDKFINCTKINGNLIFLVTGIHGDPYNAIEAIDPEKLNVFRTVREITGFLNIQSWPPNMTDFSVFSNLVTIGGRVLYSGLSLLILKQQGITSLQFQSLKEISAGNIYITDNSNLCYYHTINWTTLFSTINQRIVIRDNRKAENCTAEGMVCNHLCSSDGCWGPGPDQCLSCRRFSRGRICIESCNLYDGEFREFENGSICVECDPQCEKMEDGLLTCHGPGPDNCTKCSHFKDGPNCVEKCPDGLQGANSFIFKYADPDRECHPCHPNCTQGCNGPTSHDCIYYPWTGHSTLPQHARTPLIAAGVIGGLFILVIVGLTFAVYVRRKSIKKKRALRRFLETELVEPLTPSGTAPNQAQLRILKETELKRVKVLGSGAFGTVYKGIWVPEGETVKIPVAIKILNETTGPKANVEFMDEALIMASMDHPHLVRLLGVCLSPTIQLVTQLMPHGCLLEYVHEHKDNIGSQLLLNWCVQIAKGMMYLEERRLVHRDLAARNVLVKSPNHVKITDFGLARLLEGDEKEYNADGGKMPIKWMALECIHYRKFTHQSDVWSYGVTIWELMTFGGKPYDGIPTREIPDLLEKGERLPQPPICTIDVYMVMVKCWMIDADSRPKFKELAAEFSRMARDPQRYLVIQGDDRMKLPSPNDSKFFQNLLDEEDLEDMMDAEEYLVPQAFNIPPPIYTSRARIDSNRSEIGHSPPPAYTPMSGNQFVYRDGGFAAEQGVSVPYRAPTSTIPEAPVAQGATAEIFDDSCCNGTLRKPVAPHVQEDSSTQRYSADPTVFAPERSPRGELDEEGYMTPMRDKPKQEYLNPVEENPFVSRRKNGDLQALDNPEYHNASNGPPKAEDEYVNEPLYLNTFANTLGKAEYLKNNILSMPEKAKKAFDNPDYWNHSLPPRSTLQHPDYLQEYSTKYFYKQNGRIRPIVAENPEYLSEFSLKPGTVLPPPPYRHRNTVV
Text: as §1

[3] = molecular target: T3, panel of 442 kinases (Homo sapiens, UniProt Q16816)
T3 construct: purchased KINOMEscan
T3 sequence (Q16816 whole entry): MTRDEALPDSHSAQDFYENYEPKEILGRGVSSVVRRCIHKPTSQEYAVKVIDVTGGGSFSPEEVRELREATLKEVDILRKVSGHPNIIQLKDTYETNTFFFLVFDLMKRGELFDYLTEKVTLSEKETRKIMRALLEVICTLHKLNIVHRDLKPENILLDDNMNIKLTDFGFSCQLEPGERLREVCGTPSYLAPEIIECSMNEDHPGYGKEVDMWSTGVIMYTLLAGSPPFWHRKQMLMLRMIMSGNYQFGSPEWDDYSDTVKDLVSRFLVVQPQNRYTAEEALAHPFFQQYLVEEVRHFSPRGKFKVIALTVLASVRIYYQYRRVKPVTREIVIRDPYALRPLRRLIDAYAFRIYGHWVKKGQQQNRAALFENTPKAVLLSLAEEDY
Text: as §1

Row | SMILES | KINOMEscan: MAP4K2 [1] | KINOMEscan: ERBB4 [2] | KINOMEscan: PHKG1 [3]
1 | CCOc1cc(C(=O)N2CCC(N3CCN(C)CC3)CC2)ccc1Nc1ncc2c(n1)N(C1CCCC1)c1ccccc1C(=O)N2C [Compound 26] | 92 | 100 | 100
2 | COc1cc(C(=O)N2CCC(N3CCN(C)CC3)CC2)ccc1Nc1ncc2c(n1)N1CCc3cccc(c31)C(=O)N2C [Compound 24] | – | – | 75
3 | COc1cc(C(=O)N2CCC(N3CCN(C)CC3)CC2)ccc1Nc1ncc2c(n1)N(C)c1ccccc1C(=O)N2C [15 (LRRK2-IN-1)] | 100 | 100 | 54
4 | COc1cc(C(=O)N2CCC(N3CCN(C)CC3)CC2)ccc1Nc1ncc2c(n1)N(C1CCCC1)c1ccccc1C(=O)N2C [Compound 25, 11-cyclopentyl-2-((2-methoxy-4-(4-(4-methylpiperazin-1-yl)piperidine-1-carbonyl)phenyl)amino)-5-methyl-5H-benzo[e]pyrimido[5,4-b][1,4]diazepin-6(11H)-one] | 100 | 100 | 100
